Where “and” joins values, the source holds several entries; their conditions need not be identical. Equal values may be shown once.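 Results reflect a 48-hour exposure of cells in 96-well plates to compound at five concentrations. GI50 marks 50% less growth. The concentration for full growth arrest is given as TGI.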
What was measured:
Assay in all cases: growth of human tumour cells (NCI), 48 h
HCT-116 colon = tested on: HCT-116 colon
HT29 colon = tested on: HT29 colon
HS 578T breast = tested on: HS 578T breast
MDA-MB-435 = tested on: MDA-MB-435
HCT-15 colon = tested on: HCT-15 colon
NCI-H460 lung = tested on: NCI-H460 lung

SMILES	GI50 (HCT-116 colon)	TGI (HCT-116 colon)	GI50 (HT29 colon)	TGI (HT29 colon)	GI50 (HS 578T breast)	TGI (HS 578T breast)	GI50 (MDA-MB-435)	TGI (MDA-MB-435)	GI50 (HCT-15 colon)	TGI (HCT-15 colon)	GI50 (NCI-H460 lung)	TGI (NCI-H460 lung)
COc1ccc(/C=C/C(=O)c2ccc(Nc3nc(Nc4ccc(F)cc4)nc(Nc4ccc(Cl)cc4)n3)cc2)cc1	39.9 µM	> 100 µM	29.6 µM	> 100 µM	14.6 µM	52.3 µM	> 100 µM	> 100 µM	30.8 µM	> 100 µM	9.91 µM	84.3 µM
O=C1NC(=O)C(c2ccccc2)=C1Nc1ccccc1	> 25 µM	> 25 µM	> 25 µM	> 25 µM	16.3 µM	> 25 µM	> 25 µM	> 25 µM	> 25 µM	> 25 µM	> 25 µM	> 25 µM
O=C(/C=C/c1cccc(S(=O)(=O)Nc2ccccc2)c1)NO	0.206 µM and 0.0391 µM	1.18 µM	0.25 µM and 1.15 µM	15.9 µM and > 15.8 µM	1.28 µM and 0.52 µM	> 81.8 µM and 34.9 µM	0.29 µM and 0.194 µM	3.48 µM and 2.07 µM	1.08 µM and 1.29 µM	> 48.9 µM and 68.5 µM	0.376 µM and 0.116 µM	34 µM and 5.42 µM
CCCCCCc1cc2cc(-c3csc(/C=C/c4ccccc4)n3)c(=O)oc2cc1O	3.39 µM	12.1 µM	> 100 µM	> 100 µM	9 µM	42.7 µM	12.9 µM	27.2 µM	5.53 µM	> 100 µM	7.01 µM	21.7 µM
O=C(O)c1cn(C2CC2)c2cc(N3CCN(C(=O)Nc4nc(-c5ccc(Br)cc5)cs4)CC3)c(F)cc2c1=O	1.17 µM	> 100 µM	2.6 µM	> 100 µM	1.91 µM	> 100 µM	1.88 µM	> 100 µM	1.75 µM	> 100 µM	1.09 µM	> 100 µM
O=C(c1cccs1)c1nc2cc(Cl)ccc2[n+]([O-])c1C(F)(F)F	23.2 µM	> 100 µM	58.9 µM	> 100 µM	> 100 µM	> 100 µM	> 100 µM	> 100 µM	> 100 µM	> 100 µM	91.9 µM	> 100 µM
CCN1C(=O)N(CC)C2C1NC(=S)N2/N=C/C=C/c1ccccc1OC (stereo not given)	< 0.0182 µM	> 55.9 µM	0.0361 µM	> 100 µM	0.0514 µM	> 100 µM	0.0189 µM	0.0539 µM	0.0341 µM	> 100 µM	0.037 µM	> 100 µM
O=C1/C(=C\c2ccccc2)CN(C(=O)c2ccccc2)C/C1=C\c1ccccc1	0.321 µM	1.1 µM	1.91 µM	4.09 µM	2.31 µM	7.21 µM	1.61 µM	5 µM	2.02 µM	5.9 µM	2.8 µM	8.48 µM
COc1ncc(-c2ccc3nccc(C#CCN4CCN(S(C)(=O)=O)CC4)c3c2)cc1NS(=O)(=O)c1ccc(F)cc1F	0.178 µM	1.87 µM	0.0237 µM	2.1 µM	–	–	0.0915 µM	1.26 µM	0.0614 µM	1.62 µM	0.049 µM	4.71 µM
CN(CSc1ccc(Cl)cc1)c1ccc(CSc2ccc(Cl)cc2)cc1	3.06 µM	11.9 µM	12.2 µM	34.2 µM	3.7 µM	21.1 µM	2.68 µM	11.9 µM	5.18 µM	22.2 µM	3.65 µM	15.6 µM
NCCCNc1nc2ccc(Cl)cc2c2c(=O)c3cc(F)ccc3sc12	1.72 µM	3.12 µM	2.12 µM	4.94 µM	3.22 µM	17.7 µM	1.93 µM	4.2 µM	1.71 µM	3.48 µM	1.73 µM	3.46 µM
C=C(CN1CCN(c2ccccc2C(F)(F)F)CC1)c1ccc(C(=O)Nc2ccccc2N)cc1	3.09 µM	16.3 µM	4.09 µM	20.2 µM	12.8 µM	> 100 µM	2.72 µM	> 22.6 µM	4.88 µM	> 100 µM	5.59 µM	43.6 µM
N#Cc1c2ccccc2c2nnc3ccc(C(F)(F)F)cc3n12	58.4 µM	> 100 µM	61.8 µM	> 100 µM	–	–	32.5 µM	> 100 µM	40.6 µM	> 100 µM	28.7 µM	> 100 µM
O=C1c2cccnc2C(=O)c2c1c(C(=O)OCCc1ccccn1)c1ccccn21	0.019 µM	0.318 µM	1.54 µM	3.35 µM	< 0.0338 µM	3.21 µM	0.0524 µM	3.72 µM	0.0145 µM	1.46 µM	< 0.01 µM	0.079 µM
COc1ccc(C2CC(c3ccc4ccccc4c3)=NN2c2nc(O)c(C3=c4cc(OC)ccc4=NC3=O)s2)cc1 (stereo not given)	0.243 µM	0.66 µM	0.0458 µM	> 100 µM	0.0418 µM	0.614 µM	0.0351 µM	0.134 µM	0.0973 µM	1.09 µM	0.0226 µM	0.0473 µM
Brc1ccc(Nc2nc3ccccc3nc2Nc2ccc(Br)cc2)cc1	0.418 µM	1.65 µM	0.404 µM	10.9 µM	2.9 µM	9.05 µM	1.51 µM	4.9 µM	0.507 µM	3.21 µM	0.39 µM	2.56 µM
O=C(Nc1ccc(I)cc1)c1cccc([N+](=O)[O-])c1O	3.11 µM	13.8 µM	4.84 µM	> 100 µM	4.13 µM	87.7 µM	3.07 µM	> 100 µM	3.36 µM	40.9 µM	3.86 µM	> 100 µM
c1ccc(-c2cn(-c3ccccc3)c(-c3ccccc3)n2)cc1	1.76 µM	3.27 µM	4.79 µM	20.4 µM	–	–	7.58 µM	24.7 µM	3.84 µM	17.8 µM	13.8 µM	29.7 µM

From PubChem BioAssay (NCI)
